According to paper PMC10533412, “Phosphoantigens glue butyrophilin 3A1 and 2A1 to activate Vγ9Vδ2 T cells” (Nature, 2023):
Where “and” joins values, the source holds several entries; their conditions need not be identical. Equal entries are not always repeated. Where two headings read alike, the source gives them in different places.

What was measured:
[1] = system: BTN2A−/− MIA PaCa-2 (BTN2A1/BTN2A2 KO) cells; assay: Cell killing assay with BTN2A−/− MIA PaCa-2 (BTN2A1/BTN2A2 KO) cells expressing BTN2A1/BTN2A2 variants; settings: for Cytotoxicity of Vγ9Vδ2 T cells (percentage of specific lysis): replicates; for EC50: Homo sapiens
Description: MIA PaCa-2 cells were infected with lentivirus bearing luciferase transgene. Luciferase-positive cells were plated at 5.0 × 10^3 cells per well in 384-well plates 1 day before transfection. All plasmids were transfected into BTN2A^−/− MIA PaCa-2 (BTN2A1/BTN2A2 KO) cells using Lipofectamine 2000 reagent. […] Stable-lite luciferase (Vazyme) was added to each well and the luciferase signal was immediately measured by using the PerkinElmer EnVision microplate reader.
Percentage of lysis was calculated using the following equation: percentage of specific lysis = (maximum luciferase − experimental luciferase)/maximum luciferase × 100.

[2] = target: T1, BTN2A1 B30.2–BTN3A1 B30.2 (Homo sapiens, UniProt O00481+Q7KYR7); assay: Sedimentation velocity AUC of BTN2A1 B30.2 and BTN3A1 B30.2 with or without HMBPP; settings: SV-AUC
T1 construct: The BTN3A1 B30.2 domain was expressed and purified as described previously; 6xHis; made in house; host or cells: Escherichia coli BL21 (DE3) for BTN2A1 B30.2
Description: Sedimentation experiments were performed at 20 °C and 45,000 rpm on the Beckman Coulter ProteomeLab XL-I analytical ultracentrifuge according to standard protocols. All of the samples were prepared in the buffer (20 mM HEPES pH 7.5, 150 mM NaCl) and inserted into 12 mm (or 3 mm) Epon centerpieces.

[3] = target: BTN2A1 B30.2 domain (Homo sapiens, UniProt Q7KYR7); settings: ITC
Description: ITC experiments were performed using the MicroCal PEAQ-ITC instrument (GE Healthcare) at 25 °C. We used an initial injection of 0.4 μl followed by 19 injections (2 µl each) at 150 s time intervals. ITC binding fits were calculated using MicroCal Analysis software. The samples were prepared using a buffer (20 mM HEPES pH 7.5, 150 mM NaCl).

[4] = system: MIA PaCa-2 cells; assay: AFM-SCFS binding force between a Vγ9Vδ2 T cell and a MIA PaCa-2 cell; format: cell-based, human; design: binding force, Mean, Fig. 6b / binding force, Median, Fig. 6b: unit not given here
Description: The AFM-SCFS analysis procedure was performed using the JPK CellHesion unit as previously described, and closely followed our previously reported protocol for APCs[4]. […] The glass disks were quickly transferred to an AFM adapter with immediate addition of 1 ml of fresh medium (DMEM: 10% FBS and 1% penicillin–streptomycin). […] The raw data were normalized to the background readings. Blank readings for each set of affinity measurements (Vγ9Vδ2 T cells touching the glass surface) were collected immediately before each assay to perform background subtraction. All data were analysed using the JPK image processing software. […] The following steps were the same as described above.

[5] = Ext. Fig. 6d, cells expressing 2A2 W374R/M506T, three-parameter fit
[6] = Ext. Fig. 6d, cells expressing 2A2 W374R, three-parameter fit
[7] = Ext. Fig. 6d, cells expressing 2A2 WT, three-parameter fit
[8] = 2A1-KO cells + HMBPP, 31 values
[9] = 2A1ΔB30.2 cells + HMBPP, 39 values

BTN2A1 B30.2 domain, sequence (Q7KYR7 316-527 limits assumed): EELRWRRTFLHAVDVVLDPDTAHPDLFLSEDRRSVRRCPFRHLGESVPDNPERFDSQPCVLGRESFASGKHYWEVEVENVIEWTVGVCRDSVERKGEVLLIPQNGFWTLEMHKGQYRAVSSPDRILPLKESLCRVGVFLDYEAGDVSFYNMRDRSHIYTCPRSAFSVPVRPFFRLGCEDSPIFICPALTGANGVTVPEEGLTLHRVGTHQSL
T1 sequence (O00481 322-513 limits assumed): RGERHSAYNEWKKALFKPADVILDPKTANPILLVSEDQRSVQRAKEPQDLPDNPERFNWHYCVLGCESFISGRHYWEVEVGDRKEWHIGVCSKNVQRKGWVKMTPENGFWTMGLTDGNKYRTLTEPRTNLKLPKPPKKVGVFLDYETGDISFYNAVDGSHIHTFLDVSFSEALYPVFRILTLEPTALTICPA
T1 sequence (Q7KYR7 316-527 limits assumed): as the sequence (Q7KYR7 316-527 limits assumed) above

C/C(=C\COP(=O)(O)OP(=O)(O)O)CO [Compound 1, (E)-4-hydroxy-3-methylbut-2-en-1-yl diphosphate]
Span (best-fit value) [1, 5]: 27.17
Top (best-fit value) [1, 5]: 48.19
Bottom (best-fit value) [1, 6]: 17.13
Span (best-fit value) [1, 6]: 18.41
Top (best-fit value) [1, 6]: 35.54
Bottom (best-fit value) [1, 7]: 21.2
Span (best-fit value) [1, 7]: 14.17
Top (best-fit value) [1, 7]: 35.37
Cytotoxicity of Vγ9Vδ2 T cells (percentage of specific lysis) ([1]; HMBPP log concentration -4, 2A1 WT cells): 70.1646% and 71.1001% and 71.513%
Cytotoxicity of Vγ9Vδ2 T cells (percentage of specific lysis) ([1]; HMBPP log concentration -4, 2A1 ∆C cells): 41.112% and 41.0173% and 41.0139%
Cytotoxicity of Vγ9Vδ2 T cells (percentage of specific lysis) ([1]; HMBPP log concentration -5, 2A1 WT cells): 64.2316% and 64.2674% and 65.8786%
Cytotoxicity of Vγ9Vδ2 T cells (percentage of specific lysis) ([1]; HMBPP log concentration -5, 2A1 ∆C cells): 23.0147% and 25.2364% and 24.5941%
Cytotoxicity of Vγ9Vδ2 T cells (percentage of specific lysis) ([1]; HMBPP log concentration -6, 2A1 WT cells): 56.2518% and 58.0065% and 60.1294%
Cytotoxicity of Vγ9Vδ2 T cells (percentage of specific lysis) ([1]; HMBPP log concentration -6, 2A1 ∆C cells): 18.5277% and 22.0034% and 20.9688%
Cytotoxicity of Vγ9Vδ2 T cells (percentage of specific lysis) ([1]; HMBPP log concentration -7, 2A1 WT cells): 48.0249% and 51.1234% and 56.1132%
Cytotoxicity of Vγ9Vδ2 T cells (percentage of specific lysis) ([1]; HMBPP log concentration -7, 2A1 ∆C cells): 26.9403% and 18.9725% and 19.5843%
Cytotoxicity of Vγ9Vδ2 T cells (percentage of specific lysis) ([1]; HMBPP log concentration -8, 2A1 WT cells): 44.2956% and 44.0311% and 51.5761%
Cytotoxicity of Vγ9Vδ2 T cells (percentage of specific lysis) ([1]; HMBPP log concentration -8, 2A1 ∆C cells): 23.996% and 19.5568% and 15.4363%
Cytotoxicity of Vγ9Vδ2 T cells (percentage of specific lysis) ([1]; HMBPP log concentration -9, 2A1 WT cells): 35.2231% and 37.6052% and 42.4431%
Cytotoxicity of Vγ9Vδ2 T cells (percentage of specific lysis) ([1]; HMBPP log concentration -9, 2A1 ∆C cells): 20.428% and 19.6068% and 15.0611%
Cytotoxicity of Vγ9Vδ2 T cells (percentage of specific lysis) ([1]; HMBPP log concentration -10, 2A1 WT cells): 29.643% and 30.0604% and 32.9175%
Cytotoxicity of Vγ9Vδ2 T cells (percentage of specific lysis) ([1]; HMBPP log concentration -10, 2A1 ∆C cells): 15.4573% and 16.0868% and 15.1497%
Cytotoxicity of Vγ9Vδ2 T cells (percentage of specific lysis) ([1]; HMBPP log concentration -11, 2A1 WT cells): 26.3218% and 25.6969% and 24.6851%
Cytotoxicity of Vγ9Vδ2 T cells (percentage of specific lysis) ([1]; HMBPP log concentration -11, 2A1 ∆C cells): 16.8095% and 15.8259% and 16.2096%
EC50 ([1]; MIA PaCa-2, 144 h, Ext. Fig. 6d, cells expressing 2A1 WT, three-parameter fit): 90.3 nM
EC50 ([1]; MIA PaCa-2, 144 h, Ext. Fig. 6d, cells expressing 2A2 G352Y354QR/M506T/W374R, three-parameter fit): 176 nM
EC50 ([1]; MIA PaCa-2, 144 h, Ext. Fig. 6d, cells expressing 2A2 M506T, three-parameter fit): 266 nM
EC50 ([1]; MIA PaCa-2, 144 h, Ext. Fig. 6d, cells expressing 2A2 W374R/M506T, three-parameter fit): 191 nM
EC50 ([1]; MIA PaCa-2, 144 h, read-out: LogEC50, Ext. Fig. 6d (converted), cells expressing 2A1 WT, log(Concentration)/M, three-parameter fit): 90.2 nM
EC50 ([1]; MIA PaCa-2, 144 h, read-out: LogEC50, Ext. Fig. 6d (converted), cells expressing 2A2 G352Y354QR/M506T/W374R, log(Concentration)/M, three-parameter fit): 176 nM
EC50 ([1]; MIA PaCa-2, 144 h, read-out: LogEC50, Ext. Fig. 6d (converted), cells expressing 2A2 M506T, log(Concentration)/M, three-parameter fit): 267 nM
EC50 ([1]; MIA PaCa-2, 144 h, read-out: LogEC50, Ext. Fig. 6d (converted), cells expressing 2A2 W374R/M506T, log(Concentration)/M, three-parameter fit): 191 nM
EC50 ([1]; MIA PaCa-2, read-out: EC50 (nM), MIA PaCa-2 cell lysis by Vγ9Vδ2 T cells exposed to HMBPP, 2A1 WT): 90.3 nM
EC50 ([1]; MIA PaCa-2, read-out: EC50 (nM), MIA PaCa-2 cell lysis by Vγ9Vδ2 T cells exposed to HMBPP, active chimera bearing G352Y354QR/ M506T/W374R): 176 nM
EC50 ([1]; MIA PaCa-2, read-out: EC50 (nM), MIA PaCa-2 cell lysis by Vγ9Vδ2 T cells exposed to HMBPP, active chimera bearing W374R/M506T): 191 nM
EC50 ([1]; MIA PaCa-2, read-out: EC50 (μM) of Vγ9Vδ2 T cells towards BTN2A−/− MIA PaCa-2 in the presence of HMBPP, NT cells): 12800 nM
EC50 ([1]; MIA PaCa-2, read-out: EC50 (μM) of Vγ9Vδ2 T cells towards BTN2A−/− MIA PaCa-2 in the presence of HMBPP, transfected 2A1 WT): 800 nM
EC50 ([1]; MIA PaCa-2, read-out: EC50 (μM) of Vγ9Vδ2 T cells towards BTN2A−/− MIA PaCa-2 in the presence of HMBPP, transfected 2A1 variant D455G/E457R): 61100 nM
EC50 ([1]; MIA PaCa-2, read-out: EC50 (μM) of Vγ9Vδ2 T cells towards BTN2A−/− MIA PaCa-2 in the presence of HMBPP, transfected 2A1 variant R477A): 19700 nM
EC50 ([1]; MIA PaCa-2, read-out: EC50 (μM) of Vγ9Vδ2 T cells towards BTN2A−/− MIA PaCa-2 in the presence of HMBPP, transfected 2A1 variant T510A): 1.17e+06 nM
EC50 ([1]; MIA PaCa-2, read-out: EC50 (μM) of Vγ9Vδ2 T cells towards BTN2A−/− MIA PaCa-2 in the presence of HMBPP, transfected 2A1 variant T510M): 97700 nM
EC50 ([1]; MIA PaCa-2, read-out: EC50 (μM) of Vγ9Vδ2 T cells towards BTN2A−/− MIA PaCa-2 in the presence of HMBPP, transfected 2A1 variant V511A): 130000 nM
EC50 ([1]; MIA PaCa-2, read-out: EC50 (μM) of Vγ9Vδ2 T cells towards BTN2A−/− MIA PaCa-2 in the presence of HMBPP, transfected 2A1 variant V511D): 12500 nM
EC50 ([1]; MIA PaCa-2, read-out: EC50 (μM) of Vγ9Vδ2 T cells towards BTN2A−/− MIA PaCa-2 in the presence of HMBPP, transfected 2A1 variant V511W): 389000 nM
EC50 ([1]; MIA PaCa-2, read-out: EC50 (μM) of Vγ9Vδ2 T cells towards BTN2A−/− MIA PaCa-2 in the presence of HMBPP, transfected 2A1 variant ΔC): 17500 nM
EC50 ([1]; MIA PaCa-2, read-out: EC50, MIA PaCa-2 lysis, BTN2A−/− MIA PaCa-2 stably expressing BTN2A1 WT): 12.9 nM
EC50 ([1]; MIA PaCa-2, read-out: EC50, best-fit value, 2A1 WT, unit not printed in the sheet (b166 prints […])): 12.9 nM
EC50 ([1]; MIA PaCa-2, read-out: EC50, best-fit value, 2A1 ∆C, unit not printed in the sheet (b166 prints […])): 43900 nM
Molecular mass of BTN2A1 B30.2–BTN3A1 B30.2 oligomer formed on addition of HMBPP (tetramer) [2]: 94.9 kDa
HMBPP binding to BTN2A1 B30.2 domain [3]: does not bind
binding force, Mean, Fig. 6b [4, 8]: 767.7
binding force, Median, Fig. 6b [4, 8]: 745
binding force, Mean, Fig. 6b ([4]; 2A1 cells + HMBPP, 31 values): 1509
binding force, Median, Fig. 6b ([4]; 2A1 cells + HMBPP, 31 values): 1510
binding force, Mean, Fig. 6b [4, 9]: 594.3
binding force, Median, Fig. 6b [4, 9]: 585
Binding force between a Vγ9Vδ2 T cell and a MIA PaCa-2 cell ([4]; after HMBPP treatment (1 µM, 4 h), untreated 558 pN): 1,554 pN
